Key:
PMIX = assay: CETSA thermal stability assay, PMIX; assay type: binding, P. falciparum
Method: Lysate CETSA experiments were conducted essentially as described ([Dziekan et al., 2019]). Samples for CETSA studies were prepared using highly synchronous schizont stage P. falciparum 3D7-PMIX_HA and 3D7-PMX_HA parasites. Late-stage parasites (40–44 h post-invasion) were purified by Percoll density gradient and incubated with 1 μM compound 1 (C1) inhibitor (synthesized in-house) ([Hale et al., 2017]). After 2–4 h incubation, mature schizonts were washed once with PBS and pelleted infected red blood cells were lysed in 20 volumes of 0.15% (w/v) saponin in PBS and incubated on ice for 20 min. Parasites were washed 3 times in ice-cold PBS and the final pellet was resuspended in 10 volumes of lysis buffer (0.4% NP-40 (Roche) / PBS) and lysed by three freezing (dry ice/ethanol bath) - thawing cycles. The lysates were cleared by centrifugation at 16,000 g for 30 min and the supernatant containing soluble parasite proteins kept at −80°C until use. […] After blocking the membrane in 5% non-fat milk in TBST (M-TBST), PMIX_HA and PMX_HA were detected with anti-HA mAb 12CA5 (produced in-house) followed by HRP-conjugated a-mouse IgG Abs (Merck). Blots were developed with ECL Western Blotting Substrate (Thermo Fisher Scientific), and the images were generated and analyzed using ChemiDoc Gel Imaging System and Image Lab Software (Bio-Rad).

[1] = test system: P. falciparum merozoites (3D7); assay: Invasion assay; assay type: cell-based, Plasmodium falciparum; details: 40 nM WM4; 2.5 nM WM382; merozoites released by mechanical rupture
Method: Late-stage parasites (> 40 h post invasion) were enriched by magnet separation (MACS; Miltenyi Biotec) and allowed to develop to fully segmented schizont-stage parasites. To prevent schizont rupture and merozoites release, control parasites were incubated with 1 μM compound 1 (C1). […] Filtrate containing purified merozoites was immediately added to fresh erythrocytes (70%–80% hematocrit), incubated in a shaker (1,100 rpm) at 37°C for 20 min to allow invasion of host cells, and then diluted to 2% hematocrit. After 24 h incubation at 37°C, invasion was evaluated by measuring parasitemia by microscopy (Giemsa-stained thin smears) and flow cytometry (100,000 cells counted with FACSCalibur, BD).

P. falciparum 3D7-PMX-HA = assay: EC50 in knock down parasite line 3D7-PMX-HA; assay type: cell-based, Plasmodium falciparum; details: presence vs absence of 2.5 mM GlcN
[2] = test system: P. falciparum 3D7-PMIX-HA; assay: EC50 in knock down parasite line 3D7-PMIX-HA; assay type: cell-based, Plasmodium falciparum; details: presence vs absence of 2.5 mM GlcN
[3] = test system: protein processing by PMIX and PMX in P. falciparum; assay: Processing inhibition assays (immunoblot of merozoites and supernatants); assay type: cell-based, Plasmodium falciparum; details: WM4 40 nM, WM382 2.5 nM; for AMA1 processing in merozoites / ASP processing / MTRAP processing / PMIX processing in parasites / RAP1 processing / RON3 processing / Rh1 processed fragments, release into the supernatant / SERA5 processing: E64 10 μM
Method: Processing inhibition assays were performed as previously described ([Boyle et al., 2010]). Synchronized late trophozoite/early schizont cultures to which protease inhibitors had already been added, were passed over LD magnetic columns (Miltenyi Biotech) to remove uninfected erythrocytes. The cysteine protease inhibitor E64 (Sigma) was used at 10 μM. […] A control dish without any protease inhibitor was also included. Parasites were eluted from columns with complete RPMI 1640 culture medium to which the appropriate inhibitor at the same concentration had been added. Eluted parasites were adjusted to 5x10^6 schizonts/mL and 150 ul added per well of a 96-well flat-bottomed culture dish. […] Parasites from each condition were spun at 10000 g/10 min so that merozoite and supernatant fractions could be separately collected. Proteins from both fractions were extracted with Reducing sample buffer and separated on 4%–12% or 3%–8% acrylamide gels (NuPAGE, Invitrogen).

[4] = test system: P. falciparum gametocytes; assay: Standard membrane feeding assay (SMFA), transmission to mosquitoes; assay type: cell-based, Plasmodium falciparum; details: gametocytes treated day 13 to day 17; oocysts counted day 7 after feeding
Method: NF54 P. falciparum cultures were synchronized and maintained as described earlier at 5%–10% parasitemia at 4% hematocrit. Once parasitemia reached 8%–10% rings, parasites were diluted to 0.65% parasitemia in desired volume for the gametocyte cultures (10 mL for Petri dish or 6 × 5 mL for 6-well plate). Gametocyte cultures were supplied with gametocyte media consisted of O+ erythrocyte at 4% hematocrit in Roswell Park Memorial Institute (RPMI) 1640 medium supplemented with 26 mM 4-(2-hydroxyethyl)piperazine-1-ethanesulfonic acid (HEPES), 50 μg/mL hypoxanthine, 2.9% NaHCO3, and 10% heat-inactivated human serum. Sexual stage gametocytes were induced by allowing continuous growth cultures without the addition of fresh human erythrocytes ([Vaughan et al., 2012]). […] Stage V gametocytemia was determined by light microscopy examination of methanol fixed, Giemsa stained thin smear under 1,000 magnification. […]
On day 7 after feeding with gametocyte bloodmeal, infected mosquitoes were aspirated into a cup and anesthetized by incubating them at −20°C for 5 min until immobilized. […] Collected midguts were maintained in 1X phosphate buffered saline (PBS, GIBCO) until stained with mercurochrome for 20 min then placed on a glass slide and counted for oocysts by microscopy.

| SMILES | effect on thermal stability of PMIX (PMIX) | ability of merozoites to invade erythrocytes [1] | change of EC50 when PMX expression was decreased (P. falciparum 3D7-PMX-HA) | change of EC50 when PMIX expression was decreased [2] | AMA1 processing in merozoites [3] | ASP processing [3] | MTRAP processing [3] | PMIX processing in parasites [3] | RAP1 processing [3] | RON3 processing [3] | Rh1 processed fragments, release into the supernatant [3] | SERA5 processing [3] | EBA140 processing [3] | EBA175 processing [3] | EBA181 processing [3] | MSP1 cleavage at the known SUB1 sites [3] | MSP1 cleavage by SUB2 [3] | PMX processing in the parasite [3] | Rh5 processing [3] | Ripr processing [3] | further results |
| --- | --- | --- | --- | --- | --- | --- | --- | --- | --- | --- | --- | --- | --- | --- | --- | --- | --- | --- | --- | --- | --- |
| CC(NC(=O)c1cccc(C(c2ccccc2)N2C(=N)NC(C)(C(C)C)CC2=O)c1)c1ccccc1 (racemic) [WM4] | no effect on the thermal stability of PMIX | significantly less able to invade | significantly decreased | no significant change | inhibited cleavage | ASP was processed | did not inhibit its processing | not inhibited | processing of RAP1 to p69 was inhibited | did not block processing | the large fragment cleaved by ROM4 was not released into the supernatant | accumulation of unprocessed SERA5 | inhibited by both compounds | inhibited a cleavage event | a predominant unprocessed form was evident | inhibited | also inhibited | blocked cleavage of PMX | blocked processing of Rh5 | inhibited | SUB2 second processing event [3]: inhibited this second processing event; processing of Rh2a, Rh2b and Rh4 [3]: significantly inhibited processing; oocyst numbers in mosquitoes fed treated gametocytes [4]: no significant reduction in oocyst numbers |
| CCC1(CC)CC(=O)N([C@@H]2CCOc3ccc(C(=O)N[C@H]4CC(C)(C)Oc5ccccc54)cc32)C(=N)N1 [WM382] | significantly more thermostable | unable to invade erythrocytes | significantly decreased | significantly more sensitive | inhibited cleavage | cleavage was inhibited | inhibited processing, although not completely | inhibited processing | prevented production of both processed forms | did and the full-length protein, as well as an additional processed product (p55), were detected | the large fragment cleaved by ROM4 was not released into the supernatant | accumulation of unprocessed SERA5 | inhibited by both compounds | inhibited a cleavage event | a predominant unprocessed form was evident | inhibited | higher activity | blocked cleavage of PMX | blocked processing of Rh5 | inhibited | SUB2 second processing event [3]: inhibited this second processing event; processing of Rh2a, Rh2b and Rh4 [3]: significantly inhibited processing; oocyst numbers in mosquitoes fed treated gametocytes [4]: potently inhibited oocyst development |

From article PMC7146544, “Dual Plasmepsin-Targeting Antimalarial Agents Disrupt Multiple Stages of the Malaria Parasite Life Cycle” (Cell Host & Microbe, 2020)
